Measured values published in patent US20230372318A1, “METHODS FOR TREATING A SUBJECT HAVING MULTIPLE SYSTEM ATROPHY” (Theravance Biopharma R&D IP, LLC, priority 2022, published 2023).

Tests used:
[1] = target: T1, cytochrome P450 1A2 (CYP1A2) (Homo sapiens, UniProt P05177); conditions: healthy subjects, cited from earlier work
T1 construct: from tissue; host or cells: in vivo, healthy human subjects (as reported in Kanodia et al. 2021)

[2] = tested on: subjects with attention-deficit hyperactivity disorder and fibromyalgia; conditions: 5 mg or 20 mg once per day for 6 weeks; cited from earlier work
SERT = target: T2, SERT (Rattus norvegicus, UniProt P31652); experiment: Ex vivo transporter occupancy in rat spinal cord (SERT)
T2 construct: from tissue; host or cells: lumbar spinal cord of orally dosed male Sprague Dawley rats
T2 sequence (P31652 whole entry): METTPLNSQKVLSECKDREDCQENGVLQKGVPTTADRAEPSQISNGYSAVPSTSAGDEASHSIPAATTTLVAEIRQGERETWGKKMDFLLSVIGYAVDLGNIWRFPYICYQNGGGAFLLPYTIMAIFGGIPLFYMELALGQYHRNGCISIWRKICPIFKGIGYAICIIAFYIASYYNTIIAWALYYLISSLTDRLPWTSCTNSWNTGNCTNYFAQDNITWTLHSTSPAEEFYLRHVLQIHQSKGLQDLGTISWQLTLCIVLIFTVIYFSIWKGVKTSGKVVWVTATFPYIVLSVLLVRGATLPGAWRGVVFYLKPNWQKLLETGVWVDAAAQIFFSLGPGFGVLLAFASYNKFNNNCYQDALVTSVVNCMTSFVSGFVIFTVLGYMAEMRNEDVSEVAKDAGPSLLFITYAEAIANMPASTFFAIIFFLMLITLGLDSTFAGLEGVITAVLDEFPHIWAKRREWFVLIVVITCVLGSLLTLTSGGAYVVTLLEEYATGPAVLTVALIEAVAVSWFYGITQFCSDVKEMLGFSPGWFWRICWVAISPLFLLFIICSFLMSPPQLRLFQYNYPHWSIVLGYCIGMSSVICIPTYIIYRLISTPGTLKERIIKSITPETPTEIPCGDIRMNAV
Experimental: Adult male Sprague Dawley rats (Charles River) were housed under controlled laboratory conditions (temperature at 21±1° C.) on a 12:12 hour light-dark cycle. Animals were given free access to food and water upon arrival to the facility and animals were acclimatized to their holding room for at least 48 hours. Animals were fasted but allowed free access to water for 15-18 hours prior to dosing.
Rats (n=6/timepoint/dose level) received a single oral dose of 4-[2-(2,4,6-trifluorophenoxymethyl)phenyl]piperidine (0.3, 1, 5, 10, 30, and 60 mg/kg) and were euthanized by decapitation at specified time points (0.5, 2, 4, 6, and 8 hr for 5 mg/kg dose level; 2 hr for 0.3, 1, 10, 30, and 60 mg/kg dose levels) post-administration. Spinal cords were dissected for ex vivo transporter occupancy and PK assessments from the same animals. The spinal cord was harvested by hydraulic extrusion using phosphate-buffered saline, and the lumbar segment dissected and frozen on dry ice. The remaining spinal cord segments were collected and homogenized in water (25% w/w) for PK analysis. All samples were stored at −80° C. until analysis.
A kinetic radioligand binding assay was used to determine NET and SERT occupancy in rat spinal cord, as described previously in Bourdet et al., J. Pharm. Exp. Ther. (2012) 341:137-145. PK/PD parameters were estimated by a compartmental modeling approach (WinNonlin Version 5.0.1, Pharsight Corporation). One- and two-compartment PK models with first-order absorption and elimination were evaluated. The one-compartment model was selected. The pharmacodynamics model was an effect compartment Emax model linked directly to the central PK compartment (WinNonlin PK Model 3, PD Model 101). Selection of models was based upon best fit in terms of visual inspection, Akaike Information Criteria, and weighted residual sum of squares using the Gauss-Newton minimization method.

plasma protein = experiment: Plasma protein binding, human; format: in vitro ADME
healthy subjects = conditions: single dose up to 50 mg and multiple doses up to 20 mg once per day; cited from earlier work
human recombinant SERT = target: T3, human recombinant SERT (Homo sapiens, UniProt P31645); experiment: Radioligand binding, [3H]-citalopram, HEK293-hSERT membranes; conditions: mean (95% confidence intervals)
T3 construct: expressed in transfected cells; host or cells: HEK293
T3 sequence (P31645 whole entry): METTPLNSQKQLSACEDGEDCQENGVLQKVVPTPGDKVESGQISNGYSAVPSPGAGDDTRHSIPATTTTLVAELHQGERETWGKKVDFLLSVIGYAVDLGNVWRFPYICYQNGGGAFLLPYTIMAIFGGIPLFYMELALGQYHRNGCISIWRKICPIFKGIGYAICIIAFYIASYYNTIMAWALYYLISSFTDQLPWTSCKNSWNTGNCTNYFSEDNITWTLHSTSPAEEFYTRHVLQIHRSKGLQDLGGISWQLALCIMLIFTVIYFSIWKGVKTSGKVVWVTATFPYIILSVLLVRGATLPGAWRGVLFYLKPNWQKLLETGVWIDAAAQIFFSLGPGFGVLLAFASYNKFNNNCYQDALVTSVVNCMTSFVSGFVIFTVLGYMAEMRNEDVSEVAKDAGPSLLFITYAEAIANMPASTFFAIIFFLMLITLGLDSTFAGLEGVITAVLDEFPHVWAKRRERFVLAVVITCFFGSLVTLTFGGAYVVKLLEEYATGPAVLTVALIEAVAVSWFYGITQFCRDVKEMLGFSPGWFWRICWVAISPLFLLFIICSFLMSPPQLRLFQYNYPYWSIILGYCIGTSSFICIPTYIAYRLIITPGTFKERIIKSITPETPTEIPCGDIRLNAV
From the text: (§1) The in vitro pharmacology of ampreloxetine at human recombinant and rat native monoamine transporters was characterized as described in Smith et al., Inter. J. Neuropsychopharmcol. (2015) 1-11; and Tsuruda et al., J. Pharmacol. Toxicol. Meth. (2010) 61:192-204. See also, e.g., U.S. Pat. Nos. 8,304,432 B2 and 8,304,433 B2. Radioligands were sourced commercially (Perkin Elmer LifeSciences or GE Healthcare Life Sciences).
(§2) Briefly, membranes prepared from HEK293 (Human Embryonic Kidney 293) or CHO-K1 (Chinese Hamster Ovary-K1) cells stably transfected with human recombinant SERT (HEK293-hSERT), NET (HEK293-hNET), or DAT (CHO-K1-hDAT) were incubated for 1 hr at 22° C. in the absence, or presence, of 4-[2-(2,4,6-trifluorophenoxymethyl)phenyl]piperidine and [^3H]-citalopram (1.0 nM) for SERT, [^3H]-nisoxetine (2.0 nM) for NET, and [^3H]-WIN35428 (3.0 nM) for DAT in 50 mM Tris-HCl, 120 mM NaCl, 5 mM KCl, 0.025% BSA, 100 μM ascorbic acid, pH 7.4. Rat cortical membrane preparations were incubated with [^3H]-citalopram (2.0 nM) for SERT or [^3H]-nisoxetine (4.0 nM) for NET for 1 hr at 22° C. […] Binding and uptake assays were terminated by rapid filtration and radioactivity determined by liquid scintillation spectroscopy. […] Selectivity for NET (rounded to one significant figure) was determined as follows: […]

human recombinant DAT = target: T4, human recombinant DAT (Homo sapiens, UniProt Q01959); experiment: Radioligand binding, [3H]-WIN35428, CHO-K1-hDAT membranes; conditions: mean
T4 construct: expressed in transfected cells; host or cells: CHO-K1
T4 sequence (Q01959 whole entry): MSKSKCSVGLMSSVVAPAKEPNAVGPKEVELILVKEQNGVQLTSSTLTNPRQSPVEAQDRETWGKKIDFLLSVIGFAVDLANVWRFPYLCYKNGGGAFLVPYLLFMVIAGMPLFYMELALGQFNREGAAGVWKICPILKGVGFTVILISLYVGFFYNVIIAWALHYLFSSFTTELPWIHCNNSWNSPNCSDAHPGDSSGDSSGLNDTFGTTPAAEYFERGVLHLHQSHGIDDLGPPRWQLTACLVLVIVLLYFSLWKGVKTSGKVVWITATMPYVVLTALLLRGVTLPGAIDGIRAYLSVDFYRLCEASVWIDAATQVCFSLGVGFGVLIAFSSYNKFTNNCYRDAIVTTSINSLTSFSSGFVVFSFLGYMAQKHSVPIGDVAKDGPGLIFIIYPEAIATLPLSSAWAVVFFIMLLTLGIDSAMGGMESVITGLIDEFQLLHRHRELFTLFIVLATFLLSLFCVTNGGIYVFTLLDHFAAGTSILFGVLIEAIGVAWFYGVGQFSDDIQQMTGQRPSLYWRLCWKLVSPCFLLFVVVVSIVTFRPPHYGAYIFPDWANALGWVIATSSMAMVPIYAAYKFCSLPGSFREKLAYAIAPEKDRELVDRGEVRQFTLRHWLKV
From the text: as §1, §2

human recombinant NET = target: T5, human recombinant NET (Homo sapiens, UniProt P23975); experiment: Radioligand binding, [3H]-nisoxetine, HEK293-hNET membranes; conditions: mean (95% confidence intervals)
T5 construct: expressed in transfected cells; host or cells: HEK293
T5 sequence (P23975 whole entry): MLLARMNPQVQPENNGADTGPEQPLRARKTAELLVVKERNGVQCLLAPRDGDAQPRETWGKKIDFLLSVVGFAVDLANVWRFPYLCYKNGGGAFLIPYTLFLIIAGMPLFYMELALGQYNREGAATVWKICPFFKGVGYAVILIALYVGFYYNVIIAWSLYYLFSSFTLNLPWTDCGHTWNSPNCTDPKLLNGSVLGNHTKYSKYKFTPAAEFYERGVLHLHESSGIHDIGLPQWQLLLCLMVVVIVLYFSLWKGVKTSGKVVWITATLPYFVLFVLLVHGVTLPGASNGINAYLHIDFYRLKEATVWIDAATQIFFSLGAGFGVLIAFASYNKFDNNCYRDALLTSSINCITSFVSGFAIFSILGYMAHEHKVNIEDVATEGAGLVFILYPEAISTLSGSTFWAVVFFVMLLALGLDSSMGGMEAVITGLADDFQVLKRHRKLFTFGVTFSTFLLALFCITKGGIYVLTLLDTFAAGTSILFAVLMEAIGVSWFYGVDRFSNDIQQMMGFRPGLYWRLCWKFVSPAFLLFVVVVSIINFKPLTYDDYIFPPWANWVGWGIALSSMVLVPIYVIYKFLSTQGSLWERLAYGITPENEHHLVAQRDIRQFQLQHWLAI
From the text: as §1, §2

T1 sequence (P05177 whole entry): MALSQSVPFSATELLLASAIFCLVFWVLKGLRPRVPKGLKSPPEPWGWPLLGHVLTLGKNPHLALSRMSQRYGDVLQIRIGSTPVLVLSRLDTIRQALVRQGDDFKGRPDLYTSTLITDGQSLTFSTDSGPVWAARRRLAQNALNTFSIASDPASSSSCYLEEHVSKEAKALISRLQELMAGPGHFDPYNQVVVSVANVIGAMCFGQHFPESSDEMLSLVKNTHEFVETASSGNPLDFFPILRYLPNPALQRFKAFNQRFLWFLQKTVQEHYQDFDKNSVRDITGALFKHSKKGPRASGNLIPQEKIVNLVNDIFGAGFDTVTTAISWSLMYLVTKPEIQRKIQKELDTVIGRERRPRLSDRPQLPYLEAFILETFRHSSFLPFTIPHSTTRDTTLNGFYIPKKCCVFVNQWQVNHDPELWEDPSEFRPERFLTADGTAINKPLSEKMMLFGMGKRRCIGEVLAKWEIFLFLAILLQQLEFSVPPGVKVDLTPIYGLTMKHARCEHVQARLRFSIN

Compound: Fc1cc(F)c(OCc2ccccc2C2CCNCC2)c(F)c1 [Ampreloxetine, 4-[2-(2,4,6-trifluorophenoxymethyl)phenyl]piperidine]
- Enzyme responsible for metabolism ([1]; CYP1A2): primary enzyme responsible for ampreloxetine metabolism
- Fraction eliminated through metabolism [1]: > 90%
- Safety and tolerability [2]: generally well tolerated with no clinically significant safety signals
- EC50, plasma concentration associated with 50% SERT occupancy (SERT; rat spinal cord, oral dose): 50.8 ng/mL
- Emax, maximal SERT occupancy in spinal cord (SERT; rat, single oral dose, effect compartment PK/PD model): 79.0 % occupancy
- keo, first-order equilibration rate constant, SERT (SERT; rat, central PK compartment to effect compartment): 11.0 h⁻¹
- Plasma protein binding (plasma protein): 79.1%
- Safety and tolerability (healthy subjects): generally well tolerated
- Transporter Binding: pKi, SERT (human recombinant SERT): 8.5 (8.5, 8.6)
- Transporter Binding: pKi, DAT (human recombinant DAT): 6.7
- Transporter Binding: pKi, NET (human recombinant NET): 8.8 (8.8, 8.9)
